Source: patent US20230247994A1, “HETEROCYCLENE DERIVATIVES AS PEST CONTROL AGENTS” (Bayer Aktiengesellschaft, priority 2020, published 2023)

Tests used:
Format in all cases: in vivo
Spodoptera frugiperda = Spodoptera frugiperda spray test (maize leaf disks); conditions: foliar, 168 h, application rate 100 g/ha, caterpillars, after 7 days, 100% = all caterpillars killed, read-out: efficacy in %
From the text: Spodoptera frugiuerda—Spray Test
Solvent: 78.0 parts by weight of acetone • • 1.5 parts by weight of dimethylformamide
Emulsifier: alkylaryl polyglycol ether
An appropriate active ingredient formulation is produced by dissolving 1 part by weight of active ingredient with the stated parts by weight of solvent and making the solution up to the desired concentration with water containing an emulsifier concentration of 1000 ppm. Further test concentrations are produced by diluting the formulation with emulsifier-containing water.
Leaf disks of maize (Zea mays) are sprayed with an active ingredient formulation of the desired concentration and, after drying, populated with caterpillars of the fall armyworm (Spodopterafrugiperda).
After 7 days, efficacy in % is determined. 100% means that all of the caterpillars have been killed; 0% means that none of the caterpillars have been killed.

Nezara viridula = Nezara viridula spray test (barley plants); conditions: 96 h, application rate 500 g/ha, larvae, after 4 days, 100% = all shield bugs killed, read-out: efficacy in %
From the text: Nezara viridula—Spray Test Solvent: 78.0 parts by weight of acetone • • 1.5 parts by weight of dimethylformamide Emulsifier: alkylaryl polyglycol ether An appropriate active ingredient formulation is produced by dissolving 1 part by weight of active ingredient with the stated parts by weight of solvent and making the solution up to the desired concentration with water containing an emulsifier concentration of 1000 ppm. Further test concentrations are produced by diluting the formulation with emulsifier-containing water. Barley plants (Hordeum vulgare) are sprayed with an active ingredient formulation of the desired concentration and are infected with larvae of the Southern green shield bug (Nezara viridula). After 4 days, efficacy in % is determined. 100% means that all of the shield bugs have been killed; 0% means that none of the shield bugs have been killed.

Diabrotica balteata = Diabrotica balteata spray test (germinated wheat grains); conditions: 168 h, application rate 100 g/ha (=32 μg/cavity), after 7 days, beetle larvae on wheat, 100% = all wheat plants grown as in untreated, uninfected control, read-out: efficacy in %
From the text: Diabrotica Balteata—Spray Test Solvent: 78 parts by weight of acetone • • 1.5 parts by weight of dimethylformamide Emulsifier: alkylaryl polyglycol ether An appropriate active ingredient formulation is produced by dissolving 1 part by weight of active ingredient with the stated parts by weight of solvent and making the solution up to the desired concentration with water containing an emulsifier concentration of 1000 ppm. Further test concentrations are produced by diluting the formulation with emulsifier-containing water. Pre-swollen wheat grains (Triticum aestivum) are incubated in a multiwell plate filled with agar and a little water for one day (5 seed grains per cavity). The germinated wheat grains are sprayed with an active ingredient formulation of the desired concentration. Subsequently, each cavity is infected with 10-20 beetle larvae of Diabrotica balteata. After 7 days, efficacy in % is determined. 100% means that all wheat plants have grown as in the untreated, uninfected control; 0% means that no wheat plant has grown.

Row | SMILES | pest or weed control at 100 g/ha (Spodoptera frugiperda) | pest or weed control at 500 g/ha (Nezara viridula) | pest or weed control at 100 g/ha (Diabrotica balteata)
1 | CCS(=O)(=O)c1c(-c2nc3cc4c(cc3n2C)OC(F)(F)C(F)(F)O4)nc(-c2ccc(Cl)s2)n1C [Example I-19, 2-[2-(5-Chloro-2-thienyl)-5-(ethylsulfonyl)-1-methyl-1H-imidazol-4-yl]-6,6,7,7-tetrafluoro-1-methyl-6,7-dihydro-1H-[1,4]dioxino[2,3-f]benzimidazole] | 100% | 100% | 
2 | CCS(=O)(=O)c1c(-c2nc3cc4c(cc3n2C)OC(F)(F)C(F)(F)O4)nc(-c2ccc(C3(C(F)(F)F)CC3)cc2)n1C [Example I-7, 2-[5-(Ethylsulfonyl)-1-methyl-2-{4-[1-(trifluoromethyl)cyclopropyl]phenyl}-1H-imidazol-4-yl]-6,6,7,7-tetrafluoro-1-methyl-6,7-dihydro-1H-[1,4]dioxino[2,3-f]benzimidazole] |  |  | 100%
3 | CCS(=O)(=O)c1c(-c2nc3cc4c(cc3n2C)OC(F)(F)C(F)(F)O4)nc(-n2cnc(C3CC3)n2)n1C [Example I-23, 2-[2-(3-Cyclopropyl-1H-1,2,4-triazol-1-yl)-5-(ethylsulfonyl)-1-methyl-1H-imidazol-4-yl]-6,6,7,7-tetrafluoro-1-methyl-6,7-dihydro-1H-[1,4]dioxino[2,3-f]benzimidazole] | 100% | 100% | 80%
4 | CCS(=O)(=O)c1c(-c2nc3cc4c(cc3n2C)OC(F)(F)C(F)(F)O4)nc(-c2ccc(-c3ccc(Br)cn3)cn2)n1C [Example I-25] | 100% |  | 
5 | CCS(=N)(=O)c1c(-c2nc3cc4c(cc3n2C)OC(F)(F)C(F)(F)O4)nc(-c2ccc(C3(C#N)CC3)cc2)n1C (stereo not shown) [Example I-39] | 100% |  | 
6 | CCS(=O)(=O)c1c(-c2nc3cc4c(cc3n2C)OC(F)(F)C(F)(F)O4)nc(-c2ccc(Br)cn2)n1C [Example I-24, 2-[2-(5-Bromopyridin-2-yl)-5-(ethylsulfonyl)-1-methyl-1H-imidazol-4-yl]-6,6,7,7-tetrafluoro-1-methyl-6,7-dihydro-1H-[1,4]dioxino[2,3-f]benzimidazole] | 100% | 100% | 100%
7 | CCS(=O)(=O)c1c(-c2nc3cc4c(cc3n2C)OC(F)(F)C(F)(F)O4)nc(-c2ccc(C3CC3)nc2)n1C [Example I-18, 2-[2-(6-Cyclopropylpyridin-3-yl)-5-(ethylsulfonyl)-1-methyl-1H-imidazol-4-yl]-6,6,7,7-tetrafluoro-1-methyl-6,7-dihydro-1H-[1,4]dioxino[2,3-f]benzimidazole] | 100% | 100% | 100%
8 | CCS(=O)(=O)c1c(-c2nc3cc4c(cc3[nH]2)OC(F)(F)C(F)(F)O4)nc(Br)n1C [Example I-2, 2-[2-Bromo-5-(ethylsulfonyl)-1-methyl-1H-imidazol-4-yl]-6,6,7,7-tetrafluoro-6,7-dihydro-1H-[1,4]dioxino[2,3-f]benzimidazole] | 100% |  | 100%
9 | CCS(=O)(=O)c1c(-c2nc3cc4c(cc3n2C)OC(F)(F)C(F)(F)O4)nc(-c2cccc(F)c2)n1C [Example I-14, 2-[5-(Ethylsulfonyl)-2-(3-fluorophenyl)-1-methyl-1H-imidazol-4-yl]-6,6,7,7-tetrafluoro-1-methyl-6,7-dihydro-1H-[1,4]dioxino[2,3-f]benzimidazole] | 100% | 90% | 100%
10 | CCS(=O)(=O)c1c(-c2nc3cc4c(cc3n2C)OC(F)(F)C(F)(F)O4)nc(-c2cccc(C3(F)CC3)c2)n1C [Example I-20, 2-{5-(Ethylsulfonyl)-2-[3-(1-fluorocyclopropyl)phenyl]-1-methyl-1H-imidazol-4-yl}-6,6,7,7-tetrafluoro-1-methyl-6,7-dihydro-1H-[1,4]dioxino[2,3-f]benzimidazole] | 100% | 90% | 100%
11 | CCS(=O)(=O)c1c(-c2nc3cc4c(cc3n2C)OC(F)(F)C(F)(F)O4)nc(-c2cccc(C3(C#N)CC3)c2)n1C [Example I-36] | 100% | 90% | 100%
12 | CCS(=O)(=O)c1c(-c2nc3cc4c(cc3n2C)OC(F)(F)C(F)(F)O4)nc(-c2ccc(Br)cc2)n1C [Example I-10, 2-[2-(4-Bromophenyl)-5-(ethylsulfonyl)-1-methyl-1H-imidazol-4-yl]-6,6,7,7-tetrafluoro-1-methyl-6,7-dihydro-1H-[1,4]dioxino[2,3-f]benzimidazole] | 100% | 100% | 100%
13 | CCS(=O)(=O)c1c(-c2nc3cc4c(cc3n2C)OC(F)(F)C(F)(F)O4)nc(-c2ccc(C#N)cn2)n1C [Example I-32, 6-[5-(Ethylsulfonyl)-1-methyl-4-(6,6,7,7-tetrafluoro-1-methyl-6,7-dihydro-1H-[1,4]dioxino[2,3-f]benzimidazol-2-yl)-1H-imidazol-2-yl]nicotinonitrile] | 100% |  | 100%
14 | CCS(=O)(=O)c1c(-c2nc3cc4c(cc3n2C)OC(F)(F)C(F)(F)O4)nc(-c2ccc(C3(F)CC3)cc2)n1C [Example I-11, 2-{5-(Ethylsulfonyl)-2-[4-(1-fluorocyclopropyl)phenyl]-1-methyl-1H-imidazol-4-yl}-6,6,7,7-tetrafluoro-1-methyl-6,7-dihydro-1H-[1,4]dioxino[2,3-f]benzimidazole] | 100% | 100% | 100%
15 | CCS(=O)(=O)c1c(-c2nc3cc4c(cc3n2C)OC(F)(F)C(F)(F)O4)nc(-c2ccc(F)cc2)n1C [Example I-5, 2-[5-(Ethylsulfonyl)-2-(4-fluorophenyl)-1-methyl-1H-imidazol-4-yl]-6,6,7,7-tetrafluoro-1-methyl-6,7-dihydro-1H-[1,4]dioxino[2,3-f]benzimidazole] | 100% |  | 100%
16 | CCS(=O)(=O)c1c(-c2nc3cc4c(cc3n2C)OC(F)(F)C(F)(F)O4)nc(-c2ccc(Cl)cn2)n1C [Example I-31, 2-[2-(5-Chloropyridin-2-yl)-5-(ethylsulfonyl)-1-methyl-1H-imidazol-4-yl]-6,6,7,7-tetrafluoro-1-methyl-6,7-dihydro-1H-[1,4]dioxino[2,3-f]benzimidazole] | 100% |  | 
17 | CCS(=O)(=O)c1c(-c2nc3cc4c(cc3n2C)OC(F)(F)C(F)(F)O4)nc(-c2cccc(Cl)c2)n1C [Example I-13, 2-[2-(3-Chlorophenyl)-5-(ethylsulfonyl)-1-methyl-1H-imidazol-4-yl]-6,6,7,7-tetrafluoro-1-methyl-6,7-dihydro-1H-[1,4]dioxino[2,3-f]benzimidazole] | 100% |  | 100%
18 | CCS(=O)(=O)c1c(-c2nc3cc4c(cc3n2C)OC(F)(F)C(F)(F)O4)nc(-c2ccc(C(F)(F)F)cc2)n1C [Example I-15, 2-{5-(Ethylsulfonyl)-1-methyl-2-[4-(trifluoromethyl)phenyl]-1H-imidazol-4-yl}-6,6,7,7-tetrafluoro-1-methyl-6,7-dihydro-1H-[1,4]dioxino[2,3-f]benzimidazole] | 100% | 100% | 100%
19 | CCS(=O)(=O)c1c(-c2nc3cc4c(cc3n2C)OC(F)(F)C(F)(F)O4)nc(-c2cccc(Br)c2)n1C [Example I-12, 2-[2-(3-Bromophenyl)-5-(ethylsulfonyl)-1-methyl-1H-imidazol-4-yl]-6,6,7,7-tetrafluoro-1-methyl-6,7-dihydro-1H-[1,4]dioxino[2,3-f]benzimidazole] | 100% |  | 100%
